Laboratory results as given in patent US9738634B2, “Heterocyclic amide compound and herbicide” (SYNGENTA PARTICIPATIONS AG, priority 2013, dated 2017).

What was measured:
Type in all cases: in vivo
Settings in all cases: treatment dosage 320 g/ha
crabgrass [1] = assay: Test Example 3: weedkilling efficacy through soil treatment; D: crabgrass
Procedure, shortened: (§1)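 Crop and weed responses were judged three weeks after a uniform surface spray of the water-diluted emulsion at the given g/ha rate. Seeds sat beneath about 1.5 cm of sterilized diluvial soil, and boxes stood in a greenhouse at 25 to 30° C.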

green foxtail [2] = assay: Test Example 3: weedkilling efficacy through soil treatment; E: green foxtail
Procedure, shortened: as §1

barnyard grass [3] = assay: Test Example 3: weedkilling efficacy through soil treatment; F: barnyard grass
Procedure, shortened: as §1

wild oat [4] = assay: Test Example 3: weedkilling efficacy through soil treatment; G: wild oat
Procedure, shortened: as §1

black-grass [5] = assay: Test Example 3: weedkilling efficacy through soil treatment; H: black-grass
Procedure, shortened: as §1

Italian ryegrass [6] = assay: Test Example 3: weedkilling efficacy through soil treatment; I: Italian ryegrass
Procedure, shortened: as §1

common wind-grass [7] = assay: Test Example 3: weedkilling efficacy through soil treatment; J: common wind-grass
Procedure, shortened: as §1

Indian mallow [8] = assay: Test Example 3: weedkilling efficacy through soil treatment; K: Indian mallow
Procedure, shortened: as §1

redroot pigweed [9] = assay: Test Example 3: weedkilling efficacy through soil treatment; L: redroot pigweed
Procedure, shortened: as §1

fig-leafed goosefoot [10] = assay: Test Example 3: weedkilling efficacy through soil treatment; M: fig-leafed goosefoot
Procedure, shortened: as §1

chickweed [11] = assay: Test Example 3: weedkilling efficacy through soil treatment; N: chickweed
Procedure, shortened: as §1

catchweed [12] = assay: Test Example 3: weedkilling efficacy through soil treatment; O: catchweed
Procedure, shortened: as §1

birds-eye speedwell = assay: Test Example 3: weedkilling efficacy through soil treatment; p: birds-eye speedwell
Procedure, shortened: as §1

directly sown rice [13] = assay: Test Example 3: soil treatment, effect on crop; b: directly sown rice
Procedure, shortened: as §1

corn [14] = assay: Test Example 3: soil treatment, effect on crop; c: corn
Procedure, shortened: as §1

soybean [15] = assay: Test Example 3: soil treatment, effect on crop; d: soybean
Procedure, shortened: as §1

wheat [16] = assay: Test Example 3: soil treatment, effect on crop; e: wheat
Procedure, shortened: as §1

rapeseed [17] = assay: Test Example 3: soil treatment, effect on crop; g: rapeseed
Procedure, shortened: as §1

crabgrass [18] = assay: Test Example 4: weedkilling efficacy by foliar treatment; D: crabgrass
Procedure, shortened: (§2)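 Seeds are spot-sown into sterilized diluvial soil and covered with about 1.5 cm of soil. After 14 days' greenhouse growth at 25 to 30° C, plants are sprayed on stems and leaves with diluted emulsion at the stated g/ha rate, then scored at 3 weeks.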

green foxtail [19] = assay: Test Example 4: weedkilling efficacy by foliar treatment; E: green foxtail
Procedure, shortened: as §2

barnyard grass [20] = assay: Test Example 4: weedkilling efficacy by foliar treatment; F: barnyard grass
Procedure, shortened: as §2

wild oat [21] = assay: Test Example 4: weedkilling efficacy by foliar treatment; G: wild oat
Procedure, shortened: as §2

black-grass [22] = assay: Test Example 4: weedkilling efficacy by foliar treatment; H: black-grass
Procedure, shortened: as §2

Italian ryegrass [23] = assay: Test Example 4: weedkilling efficacy by foliar treatment; I: Italian ryegrass
Procedure, shortened: as §2

common wind-grass [24] = assay: Test Example 4: weedkilling efficacy by foliar treatment; J: common wind-grass
Procedure, shortened: as §2

Indian mallow [25] = assay: Test Example 4: weedkilling efficacy by foliar treatment; K: Indian mallow
Procedure, shortened: as §2

redroot pigweed [26] = assay: Test Example 4: weedkilling efficacy by foliar treatment; L: redroot pigweed
Procedure, shortened: as §2

fig-leafed goosefoot [27] = assay: Test Example 4: weedkilling efficacy by foliar treatment; M: fig-leafed goosefoot
Procedure, shortened: as §2

chickweed [28] = assay: Test Example 4: weedkilling efficacy by foliar treatment; N: chickweed
Procedure, shortened: as §2

catchweed [29] = assay: Test Example 4: weedkilling efficacy by foliar treatment; O: catchweed
Procedure, shortened: as §2

directly sown rice [30] = assay: Test Example 4: foliar treatment, effect on crop; b: directly sown rice
Procedure, shortened: as §2

corn [31] = assay: Test Example 4: foliar treatment, effect on crop; c: corn
Procedure, shortened: as §2

soybean [32] = assay: Test Example 4: foliar treatment, effect on crop; d: soybean
Procedure, shortened: as §2

wheat [33] = assay: Test Example 4: foliar treatment, effect on crop; e: wheat
Procedure, shortened: as §2

beet = assay: Test Example 4: foliar treatment, effect on crop; f: beet
Procedure, shortened: as §2

rapeseed [34] = assay: Test Example 4: foliar treatment, effect on crop; g: rapeseed
Procedure, shortened: as §2

## CC1=C(c2cccnc2F)C(=O)N(C(C)(C)C(=O)Nc2cc(Cl)cc(Cl)n2)CO1 [B-2-11]
Crabgrass [1]
  D (crabgrass) weedkilling efficacy grade: 5 (weed kill ratio 90% or more, (practically complete withering))
Green foxtail [2]
  E (green foxtail) weedkilling efficacy grade: 5 (weed kill ratio 90% or more, (practically complete withering))
Barnyard grass [3]
  F (barnyard grass) weedkilling efficacy grade: 5 (weed kill ratio 90% or more, (practically complete withering))
Wild oat [4]
  G (wild oat) weedkilling efficacy grade: 3 (weed kill ratio 40% or more, less than 70%)
black-grass [5]
  H (black-grass) weedkilling efficacy grade: 5 (weed kill ratio 90% or more, (practically complete withering))
Italian ryegrass [6]
  I (Italian ryegrass) weedkilling efficacy grade: 5 (weed kill ratio 90% or more, (practically complete withering))
Common wind-grass [7]
  J (common wind-grass) weedkilling efficacy grade: 5 (weed kill ratio 90% or more, (practically complete withering))
Indian mallow [8]
  K (Indian mallow) weedkilling efficacy grade: 0 (weed kill ratio 5% or less (practically no effect))
Redroot pigweed [9]
  L (redroot pigweed) weedkilling efficacy grade: 0 (weed kill ratio 5% or less (practically no effect))
fig-leafed goosefoot [10]
  M (fig-leafed goosefoot) weedkilling efficacy grade: 4 (weed kill ratio 70% or more, less than 90%)
Chickweed [11]
  N (chickweed) weedkilling efficacy grade: 4 (weed kill ratio 70% or more, less than 90%)
Catchweed [12]
  O (catchweed) weedkilling efficacy grade: 3 (weed kill ratio 40% or more, less than 70%)
birds-eye speedwell
  P (birds-eye speedwell) weedkilling efficacy grade: 5 (weed kill ratio 90% or more, (practically complete withering))
Directly sown rice [13]
  b (directly sown rice) effect on crop grade: 3 (weed kill ratio 40% or more, less than 70%)
Corn [14]
  c (corn) effect on crop grade: 1 (weed kill ratio 5% or more, less than 20%)
Soybean [15]
  d (soybean) effect on crop grade: 0 (weed kill ratio 5% or less (practically no effect))
Wheat [16]
  e (wheat) effect on crop grade: 0 (weed kill ratio 5% or less (practically no effect))
Rapeseed [17]
  g (rapeseed) effect on crop grade: 1 (weed kill ratio 5% or more, less than 20%)
Crabgrass [18]
  D (crabgrass) weedkilling efficacy grade: 5 (weed kill ratio 90% or more, (practically complete withering))
Green foxtail [19]
  E (green foxtail) weedkilling efficacy grade: 5 (weed kill ratio 90% or more, (practically complete withering))
Barnyard grass [20]
  F (barnyard grass) weedkilling efficacy grade: 5 (weed kill ratio 90% or more, (practically complete withering))
Wild oat [21]
  G (wild oat) weedkilling efficacy grade: 4 (weed kill ratio 70% or more, less than 90%)
black-grass [22]
  H (black-grass) weedkilling efficacy grade: 5 (weed kill ratio 90% or more, (practically complete withering))
Italian ryegrass [23]
  I (Italian ryegrass) weedkilling efficacy grade: 5 (weed kill ratio 90% or more, (practically complete withering))
Common wind-grass [24]
  J (common wind-grass) weedkilling efficacy grade: 5 (weed kill ratio 90% or more, (practically complete withering))
Indian mallow [25]
  K (Indian mallow) weedkilling efficacy grade: 5 (weed kill ratio 90% or more, (practically complete withering))
Redroot pigweed [26]
  L (redroot pigweed) weedkilling efficacy grade: 4 (weed kill ratio 70% or more, less than 90%)
fig-leafed goosefoot [27]
  M (fig-leafed goosefoot) weedkilling efficacy grade: 5 (weed kill ratio 90% or more, (practically complete withering))
Chickweed [28]
  N (chickweed) weedkilling efficacy grade: 4 (weed kill ratio 70% or more, less than 90%)
Catchweed [29]
  O (catchweed) weedkilling efficacy grade: 4 (weed kill ratio 70% or more, less than 90%)
Directly sown rice [30]
  b (directly sown rice) effect on crop grade: 3 (weed kill ratio 40% or more, less than 70%)
Corn [31]
  c (corn) effect on crop grade: 5 (weed kill ratio 90% or more, (practically complete withering))
Soybean [32]
  d (soybean) effect on crop grade: 4 (weed kill ratio 70% or more, less than 90%)
Wheat [33]
  e (wheat) effect on crop grade: 0 (weed kill ratio 5% or less (practically no effect))
beet
  f (beet) effect on crop grade: 4 (weed kill ratio 70% or more, less than 90%)
Rapeseed [34]
  g (rapeseed) effect on crop grade: 4 (weed kill ratio 70% or more, less than 90%)
